{"source": "patent US9802921B2", "about": "“Fluoromethyl-substituted pyrrole carboxamides iv” (Grünenthal GmbH, priority 2013, dated 2017)", "molecular_target": "T1, Human CaV2.2 channels (Homo sapiens, UniProt Q00975)", "T1 construct": "expressed in transfected cells", "T1 sequence (Q00975 whole entry)": "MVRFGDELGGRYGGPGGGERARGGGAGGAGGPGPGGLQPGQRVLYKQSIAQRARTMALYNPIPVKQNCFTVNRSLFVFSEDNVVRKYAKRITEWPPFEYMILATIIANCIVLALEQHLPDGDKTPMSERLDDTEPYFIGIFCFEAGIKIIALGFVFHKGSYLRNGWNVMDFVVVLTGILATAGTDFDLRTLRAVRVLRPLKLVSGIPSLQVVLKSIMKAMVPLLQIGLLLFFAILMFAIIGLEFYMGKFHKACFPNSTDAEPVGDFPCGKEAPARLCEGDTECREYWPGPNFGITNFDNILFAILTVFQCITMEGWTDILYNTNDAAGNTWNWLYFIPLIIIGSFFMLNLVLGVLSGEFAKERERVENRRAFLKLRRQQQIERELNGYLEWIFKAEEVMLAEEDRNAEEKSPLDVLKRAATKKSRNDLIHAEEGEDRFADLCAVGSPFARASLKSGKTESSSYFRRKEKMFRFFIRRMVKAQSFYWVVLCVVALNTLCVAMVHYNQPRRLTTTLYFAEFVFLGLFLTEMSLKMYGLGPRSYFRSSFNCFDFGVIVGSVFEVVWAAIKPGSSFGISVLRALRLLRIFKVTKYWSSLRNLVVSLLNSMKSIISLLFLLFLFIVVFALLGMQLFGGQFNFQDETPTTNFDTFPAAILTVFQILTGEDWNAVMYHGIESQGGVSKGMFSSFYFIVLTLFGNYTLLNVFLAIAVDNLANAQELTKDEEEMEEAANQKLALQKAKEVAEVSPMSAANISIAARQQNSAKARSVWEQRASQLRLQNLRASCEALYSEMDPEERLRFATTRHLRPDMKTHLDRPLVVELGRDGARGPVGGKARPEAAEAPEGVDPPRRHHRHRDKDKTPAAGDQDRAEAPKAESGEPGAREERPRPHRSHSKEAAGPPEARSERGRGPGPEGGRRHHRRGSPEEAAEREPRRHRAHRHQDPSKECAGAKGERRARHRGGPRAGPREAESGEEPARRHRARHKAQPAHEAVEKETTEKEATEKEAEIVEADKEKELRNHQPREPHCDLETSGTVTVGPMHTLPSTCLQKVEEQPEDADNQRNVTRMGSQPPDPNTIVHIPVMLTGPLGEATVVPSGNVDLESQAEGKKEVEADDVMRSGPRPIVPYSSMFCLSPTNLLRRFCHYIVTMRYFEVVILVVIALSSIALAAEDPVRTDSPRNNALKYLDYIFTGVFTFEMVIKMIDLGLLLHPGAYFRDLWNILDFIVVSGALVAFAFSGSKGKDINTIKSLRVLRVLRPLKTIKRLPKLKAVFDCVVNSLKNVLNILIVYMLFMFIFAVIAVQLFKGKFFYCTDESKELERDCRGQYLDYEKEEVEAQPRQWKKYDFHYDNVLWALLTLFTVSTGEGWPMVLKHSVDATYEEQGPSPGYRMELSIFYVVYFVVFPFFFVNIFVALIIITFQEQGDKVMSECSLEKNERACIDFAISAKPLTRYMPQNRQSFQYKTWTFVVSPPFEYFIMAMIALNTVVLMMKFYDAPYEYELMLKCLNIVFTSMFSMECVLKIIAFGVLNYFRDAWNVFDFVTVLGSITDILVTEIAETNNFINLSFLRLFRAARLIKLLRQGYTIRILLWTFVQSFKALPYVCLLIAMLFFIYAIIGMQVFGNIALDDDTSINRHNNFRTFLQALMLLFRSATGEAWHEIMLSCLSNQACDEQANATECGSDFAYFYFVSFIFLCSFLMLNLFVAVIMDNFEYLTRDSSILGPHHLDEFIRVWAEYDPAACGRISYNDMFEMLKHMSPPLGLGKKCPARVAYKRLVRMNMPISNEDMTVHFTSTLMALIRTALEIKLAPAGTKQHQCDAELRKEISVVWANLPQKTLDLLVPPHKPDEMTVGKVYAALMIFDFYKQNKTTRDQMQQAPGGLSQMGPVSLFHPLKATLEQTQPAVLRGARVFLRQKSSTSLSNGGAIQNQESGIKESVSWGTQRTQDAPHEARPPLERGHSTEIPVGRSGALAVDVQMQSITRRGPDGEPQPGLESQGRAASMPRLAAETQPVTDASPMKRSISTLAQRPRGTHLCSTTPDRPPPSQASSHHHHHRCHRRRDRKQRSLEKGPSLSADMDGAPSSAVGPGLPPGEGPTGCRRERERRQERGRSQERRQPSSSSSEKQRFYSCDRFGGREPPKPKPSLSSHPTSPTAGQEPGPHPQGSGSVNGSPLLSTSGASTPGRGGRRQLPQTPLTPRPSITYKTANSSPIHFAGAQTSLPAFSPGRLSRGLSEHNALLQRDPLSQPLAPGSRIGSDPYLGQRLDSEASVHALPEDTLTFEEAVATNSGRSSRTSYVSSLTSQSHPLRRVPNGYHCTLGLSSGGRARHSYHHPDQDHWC", "T1 sequence (P54289 25-1103, further chain)": "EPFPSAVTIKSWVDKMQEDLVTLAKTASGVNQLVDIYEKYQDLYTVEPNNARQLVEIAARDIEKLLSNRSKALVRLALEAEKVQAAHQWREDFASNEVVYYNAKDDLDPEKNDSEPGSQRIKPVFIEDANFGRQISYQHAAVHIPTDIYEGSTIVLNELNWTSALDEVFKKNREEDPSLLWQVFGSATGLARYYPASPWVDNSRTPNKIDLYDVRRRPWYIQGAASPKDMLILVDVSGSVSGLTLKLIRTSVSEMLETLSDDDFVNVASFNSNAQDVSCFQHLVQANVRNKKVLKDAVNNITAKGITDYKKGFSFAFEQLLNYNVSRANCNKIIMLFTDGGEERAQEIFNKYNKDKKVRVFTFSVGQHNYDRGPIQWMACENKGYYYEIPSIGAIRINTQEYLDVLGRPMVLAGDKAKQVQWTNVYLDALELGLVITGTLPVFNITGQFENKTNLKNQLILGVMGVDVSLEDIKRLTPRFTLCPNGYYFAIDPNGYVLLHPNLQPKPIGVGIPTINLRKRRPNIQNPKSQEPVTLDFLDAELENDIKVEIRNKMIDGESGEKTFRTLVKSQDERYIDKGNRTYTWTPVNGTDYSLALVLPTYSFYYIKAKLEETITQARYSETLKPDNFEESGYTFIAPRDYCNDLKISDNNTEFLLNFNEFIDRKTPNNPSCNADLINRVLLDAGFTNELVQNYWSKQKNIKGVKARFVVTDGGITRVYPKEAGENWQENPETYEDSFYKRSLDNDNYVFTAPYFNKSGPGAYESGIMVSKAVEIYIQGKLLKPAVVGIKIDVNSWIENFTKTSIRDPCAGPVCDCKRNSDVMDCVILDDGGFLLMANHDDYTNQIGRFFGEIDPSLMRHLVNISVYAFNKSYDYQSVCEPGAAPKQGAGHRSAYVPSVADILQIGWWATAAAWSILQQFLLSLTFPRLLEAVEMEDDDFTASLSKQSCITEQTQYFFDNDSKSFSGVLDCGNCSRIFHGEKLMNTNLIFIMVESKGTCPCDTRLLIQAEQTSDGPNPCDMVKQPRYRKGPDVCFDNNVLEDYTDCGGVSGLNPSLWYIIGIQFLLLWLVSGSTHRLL", "T1 sequence (P54284 whole entry, further chain)": "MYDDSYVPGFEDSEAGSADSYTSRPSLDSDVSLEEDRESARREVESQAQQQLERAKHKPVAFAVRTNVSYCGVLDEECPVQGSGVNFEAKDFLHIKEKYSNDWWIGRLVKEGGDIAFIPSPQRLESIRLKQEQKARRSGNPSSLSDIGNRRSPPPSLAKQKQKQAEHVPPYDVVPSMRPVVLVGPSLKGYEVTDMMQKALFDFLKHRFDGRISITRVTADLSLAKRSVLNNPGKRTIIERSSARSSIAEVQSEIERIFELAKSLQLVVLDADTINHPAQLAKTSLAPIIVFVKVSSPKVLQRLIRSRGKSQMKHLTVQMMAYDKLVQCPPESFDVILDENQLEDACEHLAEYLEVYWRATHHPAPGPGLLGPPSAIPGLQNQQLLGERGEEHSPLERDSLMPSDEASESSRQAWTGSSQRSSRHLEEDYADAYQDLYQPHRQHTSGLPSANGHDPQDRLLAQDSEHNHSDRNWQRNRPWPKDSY", "test": "Fluorescent assay for CaV2.2 channels using potassium depolarization to induce channel opening (FLIPR, Fluo 4)", "assay_type": "cell-based", "conditions": "read-out: Activity Category: %-Inhib (CaV2.2) @3 μM @30 mM KCl; 3 μM test compound; 30 mM KCl as printed; HEK293 cells stably expressing human CaV2.2", "outline": "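HEK293 cells stably co-expressing human CaV2.2 with α2δ and β subunits plus Kir2.3, Fluo-4 loaded; compounds preincubated 15 min at 25 °C in 1 mM or 30 mM KCl buffer (inactivated state), pH 7.4. Depolarized by KCl addition; baseline-normalized peak fluorescence (ex 480/em 535 nm) gave inhibition.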"}
{"smiles": "Cc1c(-c2ccc(Cl)cc2)c(C(=O)N2CCOCC2)n(Cc2ncn(C)n2)c1C(F)(F)F", "note": "[Example 019, [3-(4-Chlorophenyl)-4-methyl-1-[(1-methyl-1H-[1,2,4]triazol-3-yl)-methyl]-5-(trifluoromethyl)-1H-pyrrol-2-yl]-morpholin-4-yl-methanone]", "values": [{"measurement": "inhibition at 3 µM", "result": "75 to 95", "unit": "%"}]}
